In PubChem BioAssay (NCI):
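Dose response: 5 concentrations. Exposure: 48 h. Format: 96-well plates. Endpoint: linear interpolation; highest concentration if not reached. The concentration for 50% growth inhibition is given as GI50. TGI marks complete inhibition of growth.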

What was measured:
Assay in all cases: growth of human tumour cells (NCI), 48 h
HCC-2998 colon = tested on: HCC-2998 colon
HCT-116 colon = tested on: HCT-116 colon
HCT-15 colon = tested on: HCT-15 colon
HS 578T breast = tested on: HS 578T breast
MDA-MB-435 = tested on: MDA-MB-435
MDA-N = tested on: MDA-N
PC-3 prostate = tested on: PC-3 prostate
RXF 393 renal = tested on: RXF 393 renal
SF-295 CNS = tested on: SF-295 CNS
SN12C renal = tested on: SN12C renal

Compound | TGI (HCC-2998 colon) [µM] | TGI (HCT-116 colon) [µM] | TGI (HCT-15 colon) [µM] | TGI (HS 578T breast) [µM] | TGI (MDA-MB-435) [µM] | TGI (MDA-N) [µM] | TGI (PC-3 prostate) [µM] | TGI (RXF 393 renal) [µM] | TGI (SF-295 CNS) [µM] | TGI (SN12C renal) [µM] | GI50 (SF-295 CNS) [nM]
COc1cc(/C=C/C(=N\NS(=O)(=O)c2ccc(C)cc2)c2sc(NNC(C)=O)nc2C)ccc1O | > 100 | > 100 | > 100 | > 100 | > 100 | > 100 | > 100 | > 100 | > 100 | > 100 | 
COc1ccc(C(OCC2OC(n3cc(C)c(=O)[nH]c3=O)CC2n2cc(Cn3cc(I)c(=O)[nH]c3=O)nn2)(c2ccccc2)c2ccccc2)cc1 (stereo unspecified) | > 100 | > 100 | > 100 | > 100 | > 100 | > 100 | > 100 | > 100 | > 100 | > 100 | 
Cc1cn(C2CC(n3cc(Cn4cc(I)c(=O)[nH]c4=O)nn3)C(CO)O2)c(=O)[nH]c1=O (stereo unspecified) | > 100 | > 100 | > 100 | > 100 | > 100 | > 100 | > 100 | > 100 | > 100 | > 100 | 
Oc1cccc2c(Cl)ccnc12 | 14.9 | 15.2 | 29.7 | > 73.9 | > 78.5 | > 100 | > 100 | 7.95 | > 100 | > 55.2 | 
CC1(C)N=C(/C(Cl)=[N+](/[O-])C(=O)c2ccc(F)cc2)C(C)(C)N1O | 35.4 | 30.6 | 26.9 | 57.1 | 49.3 | 29.9 | 31.3 | 28.8 | 78.4 | 29.2 | 
c1ccc(N=C2SC3=Nc4cccc5cccc(c45)N3C2=Nc2ccccc2)cc1 | > 100 |  | > 100 | > 100 | > 100 | > 100 | > 100 | > 100 | > 100 | > 100 | 
Clc1cc(OC2C3CC4CC(C3)CC2C4)nc(Cl)n1 (stereo unspecified) | 4.28 | 27.5 | 33.3 | 42.9 | 37.9 | 53.9 | 37.9 | 27.4 | 37.7 | 31 | 
CCC12C=CCN3CCC4(C(=C(C(=O)OC)[C@@H]1O)Nc1ccccc14)C32 (stereo partly specified) | 3.06 | 2.95 | 3.09 |  |  |  |  | 2.65 | 5.7 | 5.71 | 
O=C1CCC23CC(C=CC=C12)n1c(=O)n(-c2ccccc2)c(=O)n13 (stereo unspecified) | > 100 | > 100 | > 100 |  |  |  |  | > 100 | > 100 | > 100 | 
CC1=C(C)[C@@]2(C)O[C@@]2(C)O[C@@]2(C)O[C@@]12C |  | > 100 | > 100 | > 100 | > 100 | > 100 | > 100 |  | > 100 | > 100 | 
O=S1(=O)NC(=NCc2c[nH]c3ccccc23)N(c2ccccc2)c2ccncc21 | > 100 | > 100 | > 100 | 92.7 | > 100 |  | > 100 | > 100 | > 100 | > 100 | 
O=C(O)c1cccc2c1/C(=N/Nc1ccccc1)CC2 | > 100 | > 100 | > 100 | > 100 | > 100 | > 100 | > 100 | > 100 | > 100 |  | 
O=C(Nc1ccc(C2=NCCN2)cc1)c1cncc(C(=O)Nc2ccc(C3=NCCN3)cc2)c1 | > 100 | > 100 | > 100 |  |  |  |  | > 100 | > 100 | > 100 | 
COC(=O)[C@H](Cc1c[nH]c2ccccc12)NP(=O)(O)OCC1C=CC(n2cc(C)c(=O)[nH]c2=O)O1 (stereo partly specified) | > 100 | > 100 | > 100 | > 100 | > 100 | > 100 | > 100 |  |  | > 100 | 
COC(=O)c1cc2c(n1S(=O)(=O)c1ccc(C)cc1)C(=O)C(=O)c1[nH]cc(C(=O)OCc3ccccc3)c1-2 | 0.634 | 0.247 | 0.256 | 5.8 | 0.0301 |  | 1.13 | 0.824 | 0.259 | 0.241 | 
Cc1cccc(/C=N/NC(=S)Nc2ccccc2)n1 | > 61.6 |  | > 38.4 | > 100 | > 100 | > 100 | > 91.1 | 28.1 | > 100 | 12.3 | 
COc1cc([C@@H]2c3cc4c(cc3[C@@H](Nc3ccc([N+](=O)[O-])cc3C(=O)c3ccccc3)[C@H]3COC(=O)[C@H]23)OCO4)cc(OC)c1OC | > 100 | > 100 |  | > 100 | 0.319 |  | > 100 | > 100 | > 100 | > 100 | 
O=C(Cc1cccs1)N[C@@H]1C(=O)N2C(C(=O)OC(c3ccccc3)c3ccccc3)=C(CO)CS[C@H]12 | > 100 | > 100 | > 100 |  | > 100 | > 100 | > 100 | > 100 | > 100 | > 100 | 
Cc1cccc2c(=O)cc(-c3ccccc3)[nH]c12 | 18.1 | > 100 | > 100 |  |  |  |  | 38.2 | 18.7 | > 100 | 
CC(C)/C(Cl)=N\OC(=O)Nc1ccc(S(N)(=O)=O)cc1 | 32.7 | 27.7 | 31.6 | 63.5 |  | 32.9 | 32.6 | 25.2 | 29.3 | 29.2 | 
Cc1ccc(SCC(CSCCO)OCn2cnc3c2NC(N)=NC32OCCO2)cc1 (stereo unspecified) | > 100 | > 100 | > 100 | > 100 | > 100 | > 100 | > 100 | > 100 | > 100 |  | 
CNC(=O)C(C)C1CCC2(C)C=CC(=O)C(C)=C2C1O (stereo unspecified) | > 100 | > 100 | > 100 |  |  |  |  | > 100 | > 70.8 | > 100 | 
CC[C@@]1(C[C@H]2C[C@@]3(C(=O)OC)c4[nH]c5ccccc5c4CCN3C2=O)COC2(CCCCC2)O1 | 62.1 | > 100 | > 100 | 87 |  | > 100 | > 100 | > 100 | > 100 | > 100 | 
CNC(=O)OCC1=C(COC(=O)NC)C(C)N(c2ccc(OC)cc2)C1 (stereo unspecified) |  | > 100 | > 100 | > 100 | > 100 |  | > 100 | > 100 | > 100 | > 100 | 

Compound | TGI (HCC-2998 colon) [µM] | TGI (HCT-116 colon) [µM] | TGI (HCT-15 colon) [µM] | TGI (HS 578T breast) [µM] | TGI (MDA-MB-435) [µM] | TGI (MDA-N) [µM] | TGI (PC-3 prostate) [µM] | TGI (RXF 393 renal) [µM] | TGI (SF-295 CNS) [µM] | TGI (SN12C renal) [µM] | GI50 (SF-295 CNS) [nM]
[N-]=[N+]=Nc1cc(=O)oc2ccccc12 |  | > 100 | > 100 |  |  |  |  | > 100 | > 100 | > 100 | 
COc1nc(N)c(C(=O)CCl)c(=O)n1C | 23 | 31.3 |  |  |  |  |  | 20.6 | 29.4 | 45.2 | 
COc1ccc(CNc2nc(NCc3ccc(OC)c(OC)c3)nc(NC3CCCCC3)n2)cc1 |  | > 100 | 5.64 |  | > 100 |  | > 100 | 6.22 | > 100 | > 100 | 
CC(N)Cc1ccc(C(=O)Cl)cc1 (stereo unspecified) | > 100 | > 100 | > 100 |  |  |  |  | > 100 | > 100 | > 100 | 
COC(=O)[C@H]1CO[C@@H](C(C)(C)C)N1C(=O)N1C=CC(=O)C[C@@H]1C |  | > 100 |  | > 100 | > 100 | > 100 | > 100 | > 100 | > 100 | > 100 | 
Clc1ccc(/C=C/c2nc3ccccc3s2)cc1Cl | > 100 | 63.8 | > 100 | 80.8 | > 100 | > 100 | 3.66 |  | > 100 | > 100 | 
O=C1C(=Cc2ccc(O)cc2)N=C(c2ccccc2)N1n1c(-c2ccccc2)nc2ccccc2c1=O | > 100 | > 100 | > 100 | > 100 | > 100 | > 100 | > 100 |  | > 100 |  | 
N#CN=C(N(Cc1ccccc1)Cc1ccccc1)N(Cc1ccccc1)Cc1ccccc1 | > 100 | > 100 | > 100 |  |  |  |  |  | > 100 | > 100 | 
N.N.N.N.O=[N+]([O-])[O-].[Co+3].[N-]=[N+]=[N-].[N-]=[N+]=[N-] | > 100 | > 100 | > 100 |  |  |  |  |  | > 100 | > 100 | 
CCC[C@@H](O)C[C@@H]1CCC[C@H](C[C@@H](O)CC)N1C | > 100 | > 100 | > 100 |  | > 100 | > 100 | > 100 |  | > 100 | > 100 | 
Cc1cn(C2CC(N(O)C(N)=O)C(CO)O2)c(=O)[nH]c1=O (stereo unspecified) |  | > 100 | > 100 |  | > 100 | > 100 | > 100 | > 100 | > 100 | > 100 | 
CCN(CC)CCC(=O)Nc1ccc2c(c1)C(=O)c1ccc(NC(=O)CCN(CC)CC)cc1C2=O | > 100 | 10.1 | 14.8 |  |  |  |  | 9.27 | 24 | 13.4 | 
COc1ccc(/C=C2\CCC(C)C3=C2NC(=S)NC3c2ccc(OC)c(OC)c2)cc1OC (stereo unspecified) | > 100 | > 31.6 | > 31.6 | > 31.6 | > 31.6 | 12.1 | > 31.6 |  | > 31.6 | > 31.6 | 
O=C1OCC(O)=C1C(c1ccc(Cl)cc1)c1cc2c(cc1O)OCO2 (stereo unspecified) | > 100 | > 100 | > 100 | > 100 | > 100 | > 100 | > 100 | > 100 |  | > 100 | 
CC1C=C(CCCCCCCCCCCC[C@@H](O)[C@@H]2CC[C@@H]([C@@H]3CC[C@@H](C(O)CCCCCCCCCCCCC4=C[C@H](C)OC4=O)O3)O2)C(=O)O1 (stereo partly specified) | > 100 | > 100 | > 100 |  |  |  |  | > 100 | > 100 | > 100 | 
Cc1ccccc1-n1c(=O)c2ncn(CCCl)c2n(-c2ccccc2C)c1=S | > 100 | > 100 | > 100 |  | > 100 |  | > 100 | > 100 | > 100 | > 100 | 
COC(=O)C1CCC(=O)N1C(c1ccccc1)c1ccc(OC)c(OC)c1 (stereo unspecified) | > 100 | > 100 | > 100 | > 100 | > 100 | > 100 | > 100 |  | > 100 | > 100 | 
CCOc1cc2c(cc1O)/C(=N\OC)C[C@@H]1[C@@H]2CC[C@]2(C)[C@@H](O)CC[C@@H]12 | 14.4 | > 38.7 | 16.1 | 0.776 |  | 0.031 | > 30.7 |  | 2.32 | 48.1 | 242
CC(C)CCCCCCCCCCCCC(=O)NCC(=O)NC1C(C)OC(Nc2ncnc3c2ncn3C)C(O)C1O (stereo unspecified) | 11.6 |  | > 100 |  |  |  |  | > 25.7 | > 100 | > 100 | 
CC(=O)Nc1ccc(-c2nnc(SCC(=O)Nc3ccc([N+](=O)[O-])cc3)o2)cc1 |  | 25 | 26 |  |  |  |  | 27.9 | 27.4 | 29.8 | 
C[n+]1c2ccccc2c(/C=N\NS(=O)(=O)c2ccc(O)c(C(=O)O)c2)c2ccccc21 | > 100 | > 100 | > 100 |  |  |  |  | > 100 | > 100 | > 100 | 
CC(C)c1ccc(/C=C2/C=C(c3ccc4ccccc4c3)OC2=O)cc1 | > 100 | > 100 | > 100 | > 100 | > 100 |  | > 100 | > 100 | > 100 | > 100 | 
C(/c1ccco1)=c1/nc(-c2ccccc2)n2c1nc1ccccc12 |  | 71.1 | > 100 | > 100 | > 100 | 54.4 | 9.43 | > 100 | > 100 | > 100 | 
COc1cc2c(cc1OC)C(c1ccccc1CCCCl)=NCC2 | > 100 | > 100 | > 100 | > 100 | 45.9 |  | > 100 | > 100 | > 100 | > 100 | 
